Source: US9745308B2, “Pyridazinone derivatives as phoshoinositide 3-kinases inhibitors” (CHIESI FARMACEUTICI S.p.A., priority 2014, dated 2017)

How the values were obtained:
PI3Kβ = PI3Kβ (Homo sapiens, UniProt P42338); test: PI3K enzyme inhibitory activity in the cell free assay (ADP-Glo Kinase Assay), PI3K beta
PI3Kδ = PI3Kδ (Homo sapiens, UniProt O00329); test: PI3K enzyme inhibitory activity in the cell free assay (ADP-Glo Kinase Assay), PI3K delta
PI3Kγ = PI3Kγ (Homo sapiens, UniProt P48736); test: PI3K enzyme inhibitory activity in the cell free assay (ADP-Glo Kinase Assay), PI3K gamma
Chain of PI3Kγ (P48736 whole entry): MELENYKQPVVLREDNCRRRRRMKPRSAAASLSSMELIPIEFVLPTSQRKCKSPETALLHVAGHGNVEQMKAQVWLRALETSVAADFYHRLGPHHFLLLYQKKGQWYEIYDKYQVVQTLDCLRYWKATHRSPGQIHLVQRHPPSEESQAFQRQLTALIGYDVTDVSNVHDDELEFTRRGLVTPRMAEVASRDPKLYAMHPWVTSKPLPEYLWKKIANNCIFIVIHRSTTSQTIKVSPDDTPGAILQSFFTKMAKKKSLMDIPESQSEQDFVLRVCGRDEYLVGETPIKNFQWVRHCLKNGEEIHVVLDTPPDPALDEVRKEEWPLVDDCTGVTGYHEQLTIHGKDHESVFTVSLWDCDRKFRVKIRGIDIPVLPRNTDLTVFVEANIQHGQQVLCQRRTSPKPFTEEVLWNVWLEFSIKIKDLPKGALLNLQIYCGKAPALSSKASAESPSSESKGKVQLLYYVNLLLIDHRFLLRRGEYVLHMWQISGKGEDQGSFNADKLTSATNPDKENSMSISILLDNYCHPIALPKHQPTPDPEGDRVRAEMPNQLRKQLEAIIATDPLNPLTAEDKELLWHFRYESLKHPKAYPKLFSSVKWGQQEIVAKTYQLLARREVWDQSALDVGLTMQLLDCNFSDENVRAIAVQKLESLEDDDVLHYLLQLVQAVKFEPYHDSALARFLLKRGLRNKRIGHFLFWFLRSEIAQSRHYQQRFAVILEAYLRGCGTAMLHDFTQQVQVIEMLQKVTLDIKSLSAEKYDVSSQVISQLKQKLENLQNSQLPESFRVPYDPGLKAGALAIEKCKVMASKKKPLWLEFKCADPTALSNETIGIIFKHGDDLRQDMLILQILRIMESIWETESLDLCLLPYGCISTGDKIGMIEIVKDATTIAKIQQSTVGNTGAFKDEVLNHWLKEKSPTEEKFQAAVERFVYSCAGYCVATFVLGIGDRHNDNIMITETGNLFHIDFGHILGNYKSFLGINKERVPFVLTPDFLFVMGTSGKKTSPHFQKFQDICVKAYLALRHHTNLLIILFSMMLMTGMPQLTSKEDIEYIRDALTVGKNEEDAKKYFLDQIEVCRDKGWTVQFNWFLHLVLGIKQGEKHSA

PI3Kα = PI3Kα (Homo sapiens, UniProt P42336); test: PI3K enzyme inhibitory activity in the cell free assay (ADP-Glo Kinase Assay), PI3K alpha
Chain of PI3Kα (P42336 whole entry): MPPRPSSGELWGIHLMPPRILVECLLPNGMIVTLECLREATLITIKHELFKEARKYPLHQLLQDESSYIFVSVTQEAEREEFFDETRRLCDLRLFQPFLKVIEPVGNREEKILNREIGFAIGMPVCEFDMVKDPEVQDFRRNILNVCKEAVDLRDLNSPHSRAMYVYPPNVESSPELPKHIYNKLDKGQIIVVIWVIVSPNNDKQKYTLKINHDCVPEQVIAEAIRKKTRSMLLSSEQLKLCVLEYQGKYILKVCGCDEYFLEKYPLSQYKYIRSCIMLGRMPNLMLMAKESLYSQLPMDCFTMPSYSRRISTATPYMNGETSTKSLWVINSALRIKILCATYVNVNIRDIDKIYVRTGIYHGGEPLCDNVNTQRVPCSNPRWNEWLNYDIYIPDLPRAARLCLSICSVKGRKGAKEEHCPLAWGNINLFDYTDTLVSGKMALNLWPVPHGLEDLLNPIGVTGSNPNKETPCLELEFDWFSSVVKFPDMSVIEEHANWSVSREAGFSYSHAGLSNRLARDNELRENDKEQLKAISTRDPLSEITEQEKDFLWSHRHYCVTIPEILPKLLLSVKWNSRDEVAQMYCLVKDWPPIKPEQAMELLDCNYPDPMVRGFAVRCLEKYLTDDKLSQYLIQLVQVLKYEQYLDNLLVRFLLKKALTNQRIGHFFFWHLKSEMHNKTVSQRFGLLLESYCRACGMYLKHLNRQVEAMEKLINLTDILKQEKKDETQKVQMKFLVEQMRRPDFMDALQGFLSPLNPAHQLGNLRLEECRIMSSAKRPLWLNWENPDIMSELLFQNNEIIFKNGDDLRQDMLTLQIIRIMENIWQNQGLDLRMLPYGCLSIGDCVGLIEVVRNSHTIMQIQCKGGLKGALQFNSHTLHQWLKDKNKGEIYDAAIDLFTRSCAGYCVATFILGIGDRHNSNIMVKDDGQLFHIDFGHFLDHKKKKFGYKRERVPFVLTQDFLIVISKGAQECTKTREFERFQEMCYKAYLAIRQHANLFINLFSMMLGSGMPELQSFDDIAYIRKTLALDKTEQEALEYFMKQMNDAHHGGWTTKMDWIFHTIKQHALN
Chain of PI3Kα (P27986 whole entry partner): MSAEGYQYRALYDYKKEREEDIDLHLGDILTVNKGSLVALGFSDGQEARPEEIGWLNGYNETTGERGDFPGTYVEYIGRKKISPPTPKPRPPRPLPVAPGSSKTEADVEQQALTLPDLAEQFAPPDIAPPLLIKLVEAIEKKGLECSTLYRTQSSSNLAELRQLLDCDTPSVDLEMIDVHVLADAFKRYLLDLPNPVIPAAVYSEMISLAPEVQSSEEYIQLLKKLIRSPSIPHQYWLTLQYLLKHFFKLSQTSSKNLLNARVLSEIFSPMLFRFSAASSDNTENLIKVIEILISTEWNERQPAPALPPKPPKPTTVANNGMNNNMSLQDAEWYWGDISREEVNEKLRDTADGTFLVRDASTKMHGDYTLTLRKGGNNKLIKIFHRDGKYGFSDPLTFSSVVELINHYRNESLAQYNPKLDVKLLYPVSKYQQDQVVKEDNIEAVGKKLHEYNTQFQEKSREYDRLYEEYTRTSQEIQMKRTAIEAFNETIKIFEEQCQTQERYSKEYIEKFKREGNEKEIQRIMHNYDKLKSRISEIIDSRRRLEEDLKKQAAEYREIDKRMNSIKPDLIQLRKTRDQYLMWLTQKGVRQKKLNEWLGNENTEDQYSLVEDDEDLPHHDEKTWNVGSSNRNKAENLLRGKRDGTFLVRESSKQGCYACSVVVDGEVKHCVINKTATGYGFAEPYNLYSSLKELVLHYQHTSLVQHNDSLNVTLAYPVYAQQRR

Chain of PI3Kδ (O00329 whole entry): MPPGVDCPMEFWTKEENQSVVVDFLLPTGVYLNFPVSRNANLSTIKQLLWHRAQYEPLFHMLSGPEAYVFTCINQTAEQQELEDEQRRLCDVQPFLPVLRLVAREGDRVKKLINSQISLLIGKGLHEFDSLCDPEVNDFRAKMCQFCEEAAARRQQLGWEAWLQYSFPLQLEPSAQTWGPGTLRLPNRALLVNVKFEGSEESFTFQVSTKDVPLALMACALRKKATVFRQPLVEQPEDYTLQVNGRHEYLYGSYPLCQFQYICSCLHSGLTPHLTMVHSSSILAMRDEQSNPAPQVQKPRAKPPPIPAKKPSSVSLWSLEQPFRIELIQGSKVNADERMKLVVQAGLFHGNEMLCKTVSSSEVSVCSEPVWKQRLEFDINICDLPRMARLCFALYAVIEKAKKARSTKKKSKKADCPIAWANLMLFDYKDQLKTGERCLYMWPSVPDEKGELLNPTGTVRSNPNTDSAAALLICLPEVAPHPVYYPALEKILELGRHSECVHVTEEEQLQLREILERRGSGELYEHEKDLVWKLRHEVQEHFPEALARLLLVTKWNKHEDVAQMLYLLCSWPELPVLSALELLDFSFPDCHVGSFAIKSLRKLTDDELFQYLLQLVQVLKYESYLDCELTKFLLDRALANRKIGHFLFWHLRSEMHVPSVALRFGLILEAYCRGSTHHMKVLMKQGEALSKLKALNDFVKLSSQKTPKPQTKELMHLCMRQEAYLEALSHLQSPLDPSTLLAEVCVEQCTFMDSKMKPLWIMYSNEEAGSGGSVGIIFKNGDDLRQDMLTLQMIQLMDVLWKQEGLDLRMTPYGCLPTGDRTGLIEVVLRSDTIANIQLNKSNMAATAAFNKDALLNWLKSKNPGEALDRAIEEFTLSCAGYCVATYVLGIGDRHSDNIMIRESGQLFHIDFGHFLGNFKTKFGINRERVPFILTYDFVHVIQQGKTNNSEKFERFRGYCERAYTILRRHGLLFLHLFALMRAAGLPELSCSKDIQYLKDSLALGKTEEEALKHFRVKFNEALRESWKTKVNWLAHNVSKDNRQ
Chain of PI3Kδ (P27986 whole entry partner): as the sequence (P27986 whole entry partner) above
Chain of PI3Kβ (P42338 whole entry): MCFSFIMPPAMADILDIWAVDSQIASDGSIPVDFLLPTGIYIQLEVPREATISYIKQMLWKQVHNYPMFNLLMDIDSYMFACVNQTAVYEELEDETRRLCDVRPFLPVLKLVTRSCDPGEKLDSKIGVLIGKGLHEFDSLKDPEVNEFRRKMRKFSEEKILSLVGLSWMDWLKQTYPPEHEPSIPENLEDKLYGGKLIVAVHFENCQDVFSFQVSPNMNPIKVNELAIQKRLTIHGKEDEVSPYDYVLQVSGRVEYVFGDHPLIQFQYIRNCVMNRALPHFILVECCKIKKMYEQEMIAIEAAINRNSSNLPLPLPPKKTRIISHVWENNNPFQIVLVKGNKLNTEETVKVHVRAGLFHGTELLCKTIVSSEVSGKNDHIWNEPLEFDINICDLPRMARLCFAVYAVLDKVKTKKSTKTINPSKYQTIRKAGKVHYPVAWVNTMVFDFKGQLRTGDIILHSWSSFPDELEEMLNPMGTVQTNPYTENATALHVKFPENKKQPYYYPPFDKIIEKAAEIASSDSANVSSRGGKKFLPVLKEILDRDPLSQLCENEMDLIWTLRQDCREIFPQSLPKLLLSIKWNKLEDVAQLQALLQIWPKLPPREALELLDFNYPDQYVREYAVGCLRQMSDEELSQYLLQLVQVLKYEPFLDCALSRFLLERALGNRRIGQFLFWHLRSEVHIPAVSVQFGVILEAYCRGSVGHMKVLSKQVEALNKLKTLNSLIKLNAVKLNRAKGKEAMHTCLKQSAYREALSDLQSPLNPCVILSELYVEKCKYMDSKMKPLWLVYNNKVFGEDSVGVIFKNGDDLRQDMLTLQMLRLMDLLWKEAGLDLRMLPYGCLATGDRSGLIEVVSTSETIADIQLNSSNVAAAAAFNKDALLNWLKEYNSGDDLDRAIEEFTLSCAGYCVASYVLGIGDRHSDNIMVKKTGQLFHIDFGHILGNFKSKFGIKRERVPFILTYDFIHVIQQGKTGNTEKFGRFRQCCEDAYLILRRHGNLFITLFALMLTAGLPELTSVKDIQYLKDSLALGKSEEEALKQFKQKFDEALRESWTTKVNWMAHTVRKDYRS
Chain of PI3Kβ (P27986 whole entry partner): as the sequence (P27986 whole entry partner) above

| Compound | IC50 (PI3Kβ) [nM] | IC50 (PI3Kδ) [nM] | IC50 (PI3Kγ) [nM] | IC50 (PI3Kα) [nM] |
| --- | --- | --- | --- | --- |
| CC(c1cc(=O)n(Cc2ccccc2)nc1-c1ccccc1)n1nc(-c2cc(O)cc(F)c2)c2c(N)ncnc21 (centres unmarked) [Example 1, 5-{1-[4-amino-3-(3-fluoro-5-hydroxyphenyl)-1H-pyrazolo[3,4-d]pyrimidin-1-yl]ethyl}-2-benzyl-6-phenyl-2,3-dihydropyridazin-3-one] | 10 to 1000 | 10 to 1000 | > 1000 | > 1000 |
| CC(c1cc(=O)n(C)nc1-c1ccccc1)n1nc(-c2cc(O)cc(F)c2)c2c(N)ncnc21 (centres unmarked) [Example 2, 5-{1-[4-amino-3-(3-fluoro-5-hydroxyphenyl)-1H-pyrazolo[3,4-d]pyrimidin-1-yl]ethyl}-2-methyl-6-phenyl-2,3-dihydropyridazin-3-one] | 10 to 1000 | 10 to 1000 | 10 to 1000 | > 1000 |
| CC(C)n1nc(-c2ccccc2)c(C(C)n2nc(-c3cc(O)cc(F)c3)c3c(N)ncnc32)cc1=O (centres unmarked) [Example 3, 5-{1-[4-amino-3-(3-fluoro-5-hydroxyphenyl)-1H-pyrazolo[3,4-d]pyrimidin-1-yl]ethyl}-6-phenyl-2-(propan-2-yl)-2,3-dihydropyridazin-3-one] | 10 to 1000 | 10 to 1000 | > 1000 | > 1000 |
| CC(c1cc(=O)n(CC2CC2)nc1-c1ccccc1)n1nc(-c2cc(O)cc(F)c2)c2c(N)ncnc21 (centres unmarked) [Example 4, 5-{1-[4-amino-3-(3-fluoro-5-hydroxyphenyl)-1H-pyrazolo[3,4-d]pyrimidin-1-yl]ethyl}-2-(cyclopropylmethyl)-6-phenyl-2,3-dihydropyridazin-3-one] | 10 to 1000 | 10 to 1000 | > 1000 | > 1000 |
| CC(c1cc(=O)n(-c2ccccc2)nc1-c1ccccc1)n1nc(-c2cc(O)cc(F)c2)c2c(N)ncnc21 (centres unmarked) [Example 5, 5-{1-[4-amino-3-(3-fluoro-5-hydroxyphenyl)-1H-pyrazolo[3,4-d]pyrimidin-1-yl]ethyl}-2,6-diphenyl-2,3-dihydropyridazin-3-one] | 10 to 1000 | 10 to 1000 | 10 to 1000 | > 1000 |
| CC(c1cc(=O)n(Cc2ccccn2)nc1-c1ccccc1)n1nc(-c2cc(O)cc(F)c2)c2c(N)ncnc21 (centres unmarked) [Example 6, 5-{1-[4-amino-3-(3-fluoro-5-hydroxyphenyl)-1H-pyrazolo[3,4-d]pyrimidin-1-yl]ethyl}-6-phenyl-2-(pyridin-2-ylmethyl)-2,3-dihydropyridazin-3-one] | 10 to 1000 | 10 to 1000 | > 1000 | > 1000 |
| CC(c1cnn(Cc2ccccc2)c(=O)c1)n1nc(-c2cc(O)cc(F)c2)c2c(N)ncnc21 (centres unmarked) [Example 7, 5-{1-[4-amino-3-(3-fluoro-5-hydroxyphenyl)-1H-pyrazolo[3,4-d]pyrimidin-1-yl]ethyl}-2-benzyl-2,3-dihydropyridazin-3-one] | < 10 | < 10 | 10 to 1000 | 10 to 1000 |
| CC(c1cnn(-c2ccccc2)c(=O)c1)n1nc(-c2cc(O)cc(F)c2)c2c(N)ncnc21 (centres unmarked) [Example 8, 5-{1-[4-amino-3-(3-fluoro-5-hydroxyphenyl)-1H-pyrazolo[3,4-d]pyrimidin-1-yl]ethyl}-2-phenyl-2,3-dihydropyridazin-3-one] | < 10 | < 10 | 10 to 1000 | 10 to 1000 |
| CC(c1cnn(C)c(=O)c1)n1nc(-c2cc(O)cc(F)c2)c2c(N)ncnc21 (centres unmarked) [Example 9, 5-{1-[4-amino-3-(3-fluoro-5-hydroxyphenyl)-1H-pyrazolo[3,4-d]pyrimidin-1-yl]ethyl}-2-methyl-2,3-dihydropyridazin-3-one] | 10 to 1000 | < 10 | 10 to 1000 | 10 to 1000 |
| CC(c1cnn(C)c(=O)c1-c1ccccc1)n1nc(-c2cc(O)cc(F)c2)c2c(N)ncnc21 (centres unmarked) [Example 12, 5-{1-[4-amino-3-(3-fluoro-5-hydroxyphenyl)-1H-pyrazolo[3,4-d]pyrimidin-1-yl]ethyl}-2-methyl-4-phenyl-2,3-dihydropyridazin-3-one] | 10 to 1000 | < 10 | 10 to 1000 | > 1000 |
| CC(c1cnn(-c2ccccc2)c(=O)c1-c1ccccc1)n1nc(-c2cc(O)cc(F)c2)c2c(N)ncnc21 (centres unmarked) [Example 13, 5-{1-[4-amino-3-(3-fluoro-5-hydroxyphenyl)-1H-pyrazolo[3,4-d]pyrimidin-1-yl]ethyl}-2,4-diphenyl-2,3-dihydropyridazin-3-one] | 10 to 1000 | 10 to 1000 | 10 to 1000 | 10 to 1000 |
| CC(c1cnn(CCN2CCOCC2)c(=O)c1-c1ccccc1)n1nc(-c2cc(O)cc(F)c2)c2c(N)ncnc21 (centres unmarked) [Example 14, 5-{1-[4-amino-3-(3-fluoro-5-hydroxyphenyl)-1H-pyrazolo[3,4-d]pyrimidin-1-yl]ethyl}-2-[2-(morpholin-4-yl)ethyl]-4-phenyl-2,3-dihydropyridazin-3-one] | > 1000 | < 10 | > 1000 | > 1000 |
| CC(c1cnn(-c2cccnc2)c(=O)c1-c1ccccc1)n1nc(-c2cc(O)cc(F)c2)c2c(N)ncnc21 (centres unmarked) [Example 15, 5-{1-[4-amino-3-(3-fluoro-5-hydroxyphenyl)-1H-pyrazolo[3,4-d]pyrimidin-1-yl]ethyl}-4-phenyl-2-(pyridin-3-yl)-2,3-dihydropyridazin-3-one] | 10 to 1000 | < 10 | 10 to 1000 | > 1000 |
| Nc1ncnc2c1c(-c1cc(O)cc(F)c1)nn2Cc1cnn(Cc2ccccc2)c(=O)c1 [Example 18, 5-{[4-amino-3-(3-fluoro-5-hydroxyphenyl)-1H-pyrazolo[3,4-d]pyrimidin-1-yl]methyl}-2-benzyl-2,3-dihydropyridazin-3-one] | 10 to 1000 | < 10 | 10 to 1000 | 10 to 1000 |
| CC(Nc1ncnc(N)c1C#N)c1cc(=O)n(Cc2ccccc2)nc1-c1ccccc1 (centres unmarked) [Example 19, 4-amino-6-{[1-(1-benzyl-6-oxo-3-phenyl-1,6-dihydropyridazin-4-yl)ethyl]amino}pyrimidine-5-carbonitrile] | > 1000 | > 1000 | > 1000 | > 1000 |
| CC(Nc1ncnc(N)c1C#N)c1cc(=O)n(C)nc1-c1ccccc1 (centres unmarked) [Example 20, 4-amino-6-(1-(1-methyl-6-oxo-3-phenyl-1,6-dihydropyridazin-4-yl)ethylamino)pyrimidine-5-carbonitrile] | > 1000 | 10 to 1000 | > 1000 | > 1000 |
| CC(Nc1ncnc(N)c1C#N)c1cc(=O)n(C(C)C)nc1-c1ccccc1 (centres unmarked) [Example 21, 4-amino-6-({1-[6-oxo-3-phenyl-1-(propan-2-yl)-1,6-dihydropyridazin-4-yl]ethyl}amino)pyrimidine-5-carbonitrile] | > 1000 | > 1000 | > 1000 | > 1000 |
| CC(Nc1ncnc(N)c1C#N)c1cc(=O)n(CC2CC2)nc1-c1ccccc1 (centres unmarked) [Example 22, 4-amino-6-({1-[1-(cyclopropylmethyl)-6-oxo-3-phenyl-1,6-dihydropyridazin-4-yl]ethyl}amino)pyrimidine-5-carbonitrile] | > 1000 | > 1000 | > 1000 | > 1000 |
| CC(Nc1ncnc(N)c1C#N)c1cc(=O)n(-c2ccccc2)nc1-c1ccccc1 (centres unmarked) [Example 23, 4-amino-6-{[1-(6-oxo-1,3-diphenyl-1,6-dihydropyridazin-4-yl)ethyl]amino}pyrimidine-5-carbonitrile] | > 1000 | > 1000 | > 1000 | > 1000 |
| CC(Nc1ncnc2[nH]cnc12)c1cc(=O)n(Cc2ccccc2)nc1-c1ccccc1 (centres unmarked) [Example 24, 2-benzyl-6-phenyl-5-{1-[(9H-purin-6-yl)amino]ethyl}-2,3-dihydropyridazin-3-one] | > 1000 | > 1000 | > 1000 | > 1000 |
